The text below walks through data of US10849881B2, “Octahydro-cyclobuta[1,2-c;3,4-c′]dipyrrol-2-yl” (Hoffmann-La Roche Inc., priority 2013, dated 2020).

The target in the experiment is ATX (human His-tagged) (Homo sapiens (Human), UniProt Q13822). Nature of the experiment: Human ATX enzyme inhibition assay (fluorescence quenching, MR121 substrate). It counts as biochemical. The conditions noted are these: 30 nM ATX, 1 μM MR121 substrate, 30° C., pH 8.0. The protocol:
Human ATX Enzyme Inhibition Assay
ATX inhibition was measured by a fluorescence quenching assay using a specifically labeled substrate analogue (MR121 substrate). To obtain this MR121 substrate, BOC and TBS protected 6-amino-hexanoic acid (R)-3-({2-[3-(2-{2-[2-(2-amino-ethoxy)-ethoxy]-ethoxy}-ethoxy)-propionylamino]-ethoxy}-hydroxy-phosphoryloxy)-2-hydroxy-propyl ester (Ferguson et al., Org Lett 2006, 8 (10), 2023) was labeled with MR121 fluorophore (CAS 185308-24-1, 1-(3-carboxypropyl)-11-ethyl-1,2,3,4,8,9,10,11-octahydro-dipyrido[3,2-b:2′,3′-i]phenoxazin-13-ium) on the free amine of the ethanolamine side and then, after deprotection, subsequently with tryptophan on the side of the aminohexanoic acid.
Assay working solutions were made as follows:
Assay buffer (50 mM Tris-HCl, 140 mM NaCl, 5 mM KCl, 1 mM CaCl2, 1 mM MgCl2, 0.01% Triton-X-100, pH 8.0;
ATX solution: ATX (human His-tagged) stock solution (1.08 mg/mL in 20 mM bicine, pH 8.5, 0.15 M NaCl, 10% glycerol, 0.3% CHAPS, 0.02% NaN3), diluted to 1.4-2.5× final concentration in assay buffer;
MR121 substrate solution: MR121 substrate stock solution (800 μM MR121 substrate in DMSO), diluted to 2-5× final concentration in assay buffer.
Test compounds (10 mM stock in DMSO, 8 μL) were obtained in 384 well sample plates (Corning Costar #3655) and diluted with 8 μL DMSO. Row-wise serial dilutions were made by transferring 8 μL cpd solution to the next row up to row O. The compound and control solutions were mixed five times and 2 μL were transferred to 384 well assay plates (Corning Costar #3702). Then, 15 μL of 41.7 nM ATX solution was added (30 nM final concentration), mixed five times and then incubated for 15 minutes at 30° C. 10 μL of MR121 substrate solution was added (1 μM final concentration), mixed 30 times and then incubated for 15 minutes at 30′C.

SMILES strings stand for the structures.

With `Cc1ccc(C(=O)N2C[C@@H]3[C@H](C2)[C@H]2CN(C(=O)c4ccc(OCC5CC5)nn4)C[C@@H]32)cc1C` [Example 1.102, [(3aS,3bR,6aS,6bR)-5-(6-cyclopropylmethoxy-pyridazine-3-carbonyl)-octahydro-cyclobuta[1,2-c;3,4-c′]dipyrrol-2-yl]-(3,4-dimethyl-phenyl)-methanone], the IC50 is 992 nM.

On to `O=C(c1ccc(-c2ccc(Cl)cc2)nc1)N1C[C@@H]2[C@H](C1)[C@H]1CN(C(=O)[C@@H]3CCc4[nH]nnc4C3)C[C@@H]21` [Example 1.063, [6-(4-chloro-phenyl)-pyridin-3-yl]-[(3aR,3bS,6aR,6bS)-5-((R)-4,5,6,7-tetrahydro-1H-benzotriazole-5-carbonyl)-octahydro-cyclobuta[1,2-c;3,4-c′]dipyrrol-2-yl]-methanone], for which the IC50 was 1 nM.

On to `COc1nc(C(=O)N2C[C@@H]3[C@H]4CN(C(=O)c5ccc6[nH]nnc6c5)C[C@H]4[C@@H]3C2)cc2ccccc12` [Example 1.046, [(3aR,3bS,6aR,6bS)-5-(1H-benzotriazole-5-carbonyl)-octahydro-cyclobuta[1,2-c;3,4-c′]dipyrrol-2-yl]-(1-methoxy-isoquinolin-3-yl)-methanone], for which the IC50 is 28 nM.

On to `COc1cc(C(=O)N2C[C@@H]3[C@H](C2)[C@H]2CN(C(=O)c4ccc5[nH]nnc5c4)C[C@@H]32)cc2ccccc12` [Example 1.026, [(3aS,3bS,6aR,6bR)-5-(1H-benzotriazole-5-carbonyl)-octahydro-cyclobuta[1,2-c;3,4-c′]dipyrrol-2-yl]-(4-methoxy-naphthalen-2-yl)-methanone], for which 11.5 nM corresponded to half-maximal inhibition (IC50).

In turn, `O=C(c1cc(OCC2CC2)c2ccccc2c1)N1C[C@@H]2[C@H](C1)[C@H]1CN(C(=O)c3ccc4[nH]nnc4c3)C[C@@H]21` [Example 1.025, [(3aS,3bS,6aR,6bR)-5-(1H-benzotriazole-5-carbonyl)-octahydro-cyclobuta[1,2-c;3,4-c′]dipyrrol-2-yl]-(4-cyclopropylmethoxy-naphthalen-2-yl)-methanone] displayed an IC50 of 8.5 nM.

In turn, `O=C(OCc1ccc(OC(F)(F)F)cc1)N1C[C@@H]2[C@H](C1)[C@H]1CN(C(=O)c3ccc4[nH]nnc4c3)C[C@@H]21` [Example 2, (3aR,3bS,6aR,6bS)-5-(1H-Benzotriazole-5-carbonyl)-octahydro-cyclobuta[1,2-c;3,4-c′]dipyrrole-2-carboxylic acid 4-trifluoromethoxy-benzyl Ester] showed an IC50 of 14 nM. Against the preceding molecule, the IC50 is about 1.6-fold higher.

Turning to `O=C(c1cc2ccc(OC(F)(F)F)cc2[nH]1)N1C[C@@H]2[C@H](C1)[C@H]1CN(C(=O)[C@@H]3CCc4[nH]nnc4C3)C[C@@H]21` [Example 1.020, [(3aR,3bS,6aR,6bS)-5-((R)-4,5,6,7-tetrahydro-1H-benzotriazole-5-carbonyl)-octahydro-cyclobuta[1,2-c;3,4-c′]dipyrrol-2-yl]-(6-trifluoromethoxy-1H-indol-2-yl)-methanone], the half-inhibitory concentration (IC50) is 6 nM.

`O=C(c1ccc2[nH]nnc2c1)N1C[C@@H]2[C@H](C1)[C@H]1CN(C(=O)N3CCc4cc(C(F)(F)F)ccc4C3)C[C@@H]21` [Example 4, [(3aR,3bS,6aR,6bS)-5-(1H-Benzotriazole-5-carbonyl)-octahydro-cyclobuta[1,2-c;3,4-c′]dipyrrol-2-yl]-(6-trifluoromethyl-3,4-dihydro-1H-isoquinolin-2-yl)-methanone]: the IC50 stood at 70 nM. This IC50 is about 12-fold higher than that of the molecule before.

On to `COCCOc1cc(C(=O)N2C[C@@H]3[C@H](C2)[C@H]2CN(C(=O)c4ccc5[nH]nnc5c4)C[C@@H]32)cc2ccccc12` [Example 1.049, [(3aS,3bS,6aR,6bR)-5-(1H-benzotriazole-5-carbonyl)-octahydro-cyclobuta[1,2-c;3,4-c′]dipyrrol-2-yl]-[4-(2-methoxy-ethoxy)-naphthalen-2-yl]-methanone], for which half-maximal inhibition (IC50) was put at 4 nM.

`O=C(c1ccc(-c2ccc(Cl)cc2)cc1)N1C[C@@H]2[C@H](C1)[C@H]1CN(C(=O)c3ccc4[nH]nnc4c3)C[C@@H]21` [Example 1.017, [(3aS,3bS,6aR,6bR)-5-(1H-benzotriazole-5-carbonyl)-octahydro-cyclobuta[1,2-c;3,4-c′]dipyrrol-2-yl]-(4′-chloro-biphenyl-4-yl)-methanone] had an IC50 of 8 nM. This IC50 lies about 2-fold higher than the previous one.

`CC(C)Oc1cc(C(=O)N2C[C@@H]3[C@H]4CN(C(=O)c5ccc(S(N)(=O)=O)cc5)C[C@H]4[C@@H]3C2)cc2ccccc12` [Example 1.062, 4-[(3aS,3bS,6aR,6bR)-5-(4-isopropoxy-naphthalene-2-carbonyl)-octahydro-cyclobuta[1,2-c;3,4-c′]dipyrrole-2-carbonyl]benzenesulfonamide] gave an IC50 of 9 nM.

Molecule `CCOc1c(C(=O)N2C[C@@H]3[C@H]4CN(C(=O)c5ccc6[nH]nnc6c5)C[C@H]4[C@@H]3C2)ccc2c1ccn2CC` [Example 1.081, [(3aS,3bS,6aR,6bR)-5-(1H-benzotriazole-5-carbonyl)-octahydro-cyclobuta[1,2-c;3,4-c′]dipyrrol-2-yl]-(4-ethoxy-1-ethyl-1H-indol-5-yl)-methanone] had a half-inhibitory concentration (IC50) of 7.5 nM.

`CCn1ccc2c(OC(C)C)cc(C(=O)N3C[C@@H]4[C@H]5CN(C(=O)c6ccc7[nH]nnc7c6)C[C@H]5[C@@H]4C3)cc21` [Example 1.074, [(3aS,3bS,6aR,6bR)-5-(1H-benzotriazole-5-carbonyl)-octahydro-cyclobuta[1,2-c;3,4-c′]dipyrrol-2-yl]-(1-ethyl-4-isopropoxy-1H-indol-6-yl)-methanone] came in with an IC50 of 5 nM.

In turn, `O=C(c1ccc2[nH]nnc2c1)N1C[C@@H]2[C@H](C1)[C@H]1CN(C(=O)c3cc(OCc4ccccc4)c4cc[nH]c4c3)C[C@@H]21` [Example 1.053, [(3aS,3bS,6aR,6bR)-5-(1H-benzotriazole-5-carbonyl)-octahydro-cyclobuta[1,2-c;3,4-c′]dipyrrol-2-yl]-(4-benzyloxy-1H-indol-6-yl)-methanone] gave an IC50 of 14 nM.

Turning to `O=C(c1ccc2[nH]nnc2c1)N1C[C@@H]2[C@H](C1)[C@H]1CN(C(=O)c3ccc(OCC(F)(F)F)cn3)C[C@@H]21` [Example 1.101, (1H-benzotriazol-5-yl)-{(3aS,3bR,6aS,6bR)-5-[5-(2,2,2-trifluoro-ethoxy)-pyridine-2-carbonyl]-octahydro-cyclobuta[1,2-c;3,4-c′]dipyrrol-2-yl}-methanone], the IC50 stood at 4430 nM. This IC50 is about 320-fold higher than that of the molecule before.

`CCOc1cc(C(=O)N2C[C@@H]3[C@H]4CN(C(=O)c5ccc6[nH]nnc6c5)C[C@H]4[C@@H]3C2)nc2c1CCCC2` [Example 1.088] returned a 50% inhibitory concentration (IC50) of 41.3 nM.

The molecule `CCOc1cc(C(=O)N2C[C@@H]3[C@H](C2)[C@H]2CN(C(=O)c4ccc5[nH]nnc5c4)C[C@@H]32)cc2ccccc12` [Example 1.051, [(3aS,3bS,6aR,6bR)-5-(1H-benzotriazole-5-carbonyl)-octahydro-cyclobuta[1,2-c;3,4-c′]dipyrrol-2-yl]-(4-ethoxy-naphthalen-2-yl)-methanone] came in with a 50% inhibitory concentration (IC50) of 7 nM.
